# Measured values reported in ChEMBL document CHEMBL5543071, “Benzopyran hydrazones with dual PPARα/γ or PPARα/δ agonism and an anti-inflammatory effect on human THP-1 macrophages” (Eur J Med Chem, 2024).
# Key:
# [1] = system: THP-1; assay: Cytotoxicity against human THP-1 cells assessed as reduction in cell viability at 10 to 30 uM incubated for 72 hrs; type: toxicity, cell-based; conditions: thp-1, 72 h, dose 10-30 µM
# [2] = target: T1, Peroxisome proliferator-activated receptor gamma (Homo sapiens, UniProt P37231); type: cell-based, COS7
# T1 sequence (P37231 whole entry): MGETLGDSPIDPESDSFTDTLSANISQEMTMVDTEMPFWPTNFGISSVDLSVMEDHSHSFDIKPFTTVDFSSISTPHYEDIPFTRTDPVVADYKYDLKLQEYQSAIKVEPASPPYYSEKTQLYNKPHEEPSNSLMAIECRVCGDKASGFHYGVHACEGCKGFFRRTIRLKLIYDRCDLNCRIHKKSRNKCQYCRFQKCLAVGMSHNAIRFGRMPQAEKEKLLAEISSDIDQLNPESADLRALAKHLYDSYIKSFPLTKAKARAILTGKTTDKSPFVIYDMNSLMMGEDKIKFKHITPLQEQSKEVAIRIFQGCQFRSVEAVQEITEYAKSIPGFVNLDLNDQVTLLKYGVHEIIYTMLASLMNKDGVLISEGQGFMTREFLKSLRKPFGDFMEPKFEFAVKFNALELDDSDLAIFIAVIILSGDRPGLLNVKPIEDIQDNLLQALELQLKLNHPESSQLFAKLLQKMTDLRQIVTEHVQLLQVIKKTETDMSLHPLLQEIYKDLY
# Description: Agonist activity at human PPARgamma transfected in african green monkey COS7 cells assessed transcriptional activation incubated for 24 hrs by luciferase assay
# [3] = system: THP-1; assay: Cytotoxicity against human THP-1 cells assessed as reduction in cell viability at 100 uM incubated for 72 hrs; type: toxicity, cell-based; conditions: thp-1, 72 h
SMILES,Activity [1],EC50 [2],Activity [3]
C/C(=C\CCC1(C)CCc2cc(OCc3ccc(F)cc3)ccc2O1)CC/C=N/Nc1ncc(Cl)cc1C(F)(F)F (stereo not given),Non-Toxic,,
CC1(CC/C=N/Nc2nc3ccccc3s2)CCc2cc(OCc3ccc(F)cc3)ccc2O1 (stereo not given),Non-Toxic,,
CC1(CC/C=N/Nc2ncc(Cl)cc2C(F)(F)F)CCc2cc(OCc3ccc(F)cc3)ccc2O1 (stereo not given),Non-Toxic,5.54 µM,Toxic
